Results reported in the supplement of paper PMC10627819.

Tests used:
S. pneumoniae D39V [1] = assay: Bliss interaction score (quartile over a dose matrix) (fitness difference); higher = more antagonism (negative = synergy)
Method in brief: (§1)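 The Bliss score takes observed fitness and subtracts the expected fitness, calculated as a product of single-drug fitness values. Those single-drug values were inferred from the combination data. Fitness is OD595 at entry into stationary phase divided by the plate's robust no-drug mean, capped at 1, and the score is summarised by quartiles across technical, biological and donor/recipient replicates.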

S. aureus DSM 20231 [2] = assay: as above
Method in brief: as §1

S. aureus Newman [3] = assay: as above
Method in brief: as §1

B. subtilis 168 [4] = assay: as above
Method in brief: as §1

S. pneumoniae D39V [5] = assay: fitness (endpoint OD595 vs no drug) (fraction); higher = more growth
Method in brief: (§2)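 Fitness expresses the optical density reached at the stationary-phase transition as a fraction of the robust mean of no-drug control wells. It is capped at 1. Measurements were OD595 every 30 min for 14 h at 37 °C after inoculation of 384-well plates at OD595 0.01 (30 µl, or 55 µl for S. pneumoniae), minus the first reading.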

S. aureus DSM 20231 [6] = assay: as above
Method in brief: as §2

S. aureus Newman [7] = assay: as above
Method in brief: as §2

B. subtilis 168 [8] = assay: as above
Method in brief: as §2
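Wherever Bliss interaction score (quartile over a dose matrix) is given: first quartile when negative (synergy) and third quartile when positive (antagonism).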
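Wherever fitness (endpoint OD595 vs no drug) is given: OD595 on entry to stationary phase over no-drug wells; at most 1.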

CO/N=C(\C(=O)N[C@@H]1C(=O)N2C(C(=O)O)=C(COC(C)=O)CS[C@H]12)c1csc(N)n1 [Cefotaxime] + CN(N=O)C(=O)N[C@@H](C=O)[C@@H](O)[C@H](O)[C@H](O)CO [Streptozotocin]
Details	Bliss interaction score
B. subtilis 168 [4]	0.0848
S. aureus DSM 20231 [2]	-0.0448
S. aureus Newman [3]	-0.0599
S. pneumoniae D39V [1]	0.0325

fitness
Details	first compound 0.0018 µg/mL	first compound 0.0035 µg/mL	first compound 0.007 µg/mL	first compound 0.078 µg/mL	first compound 0.156 µg/mL	first compound 0.312 µg/mL
S. aureus DSM 20231 [6], partner 0.15 µg/mL	–	–	–	0.691	0.653	0.609
S. aureus DSM 20231 [6], partner 0.3 µg/mL	–	–	–	0.612	0.617	0.614
S. aureus DSM 20231 [6], partner 0.6 µg/mL	–	–	–	0.552	0.564	0.521
S. aureus Newman [7], partner 0.15 µg/mL	–	–	–	0.641	0.476	0.253
S. aureus Newman [7], partner 0.3 µg/mL	–	–	–	0.539	0.389	0.133
S. aureus Newman [7], partner 0.6 µg/mL	–	–	–	0.403	0.204	0.0516
S. pneumoniae D39V [5], partner 1.2 µg/mL	0.957	0.963	0.889	–	–	–
S. pneumoniae D39V [5], partner 2.4 µg/mL	0.97	0.964	0.775	–	–	–
S. pneumoniae D39V [5], partner 4.8 µg/mL	0.978	0.938	0.861	–	–	–

fitness, one replicate
Details	partner 0.15 µg/mL	partner 0.3 µg/mL	partner 0.6 µg/mL
B. subtilis 168 [8], first compound 0.00775 µg/mL	0.767	0.832	0.787
B. subtilis 168 [8], first compound 0.0155 µg/mL	0.721	0.743	0.715
B. subtilis 168 [8], first compound 0.031 µg/mL	0.526	0.518	0.502
B. subtilis 168 [8], first compound 0.5 µg/mL	0.34	0.342	0.347
B. subtilis 168 [8], first compound 1 µg/mL	0.132	0.136	0.146
B. subtilis 168 [8], first compound 2 µg/mL	0.0874	0.126	0.183
S. aureus DSM 20231 [6], first compound 0.039 µg/mL	0.756	0.675	0.551
S. aureus Newman [7], first compound 0.625 µg/mL	0.0252	0.0161	0
S. aureus Newman [7], first compound 1.25 µg/mL	0.023	0.0017	0
S. aureus Newman [7], first compound 2.5 µg/mL	0.0355	0.0302	0

COc1ccc(C[C@H](N)C(=O)N[C@H]2[C@@H](O)[C@H](n3cnc4c(N(C)C)ncnc43)O[C@@H]2CO)cc1 [Puromycin] + CN1C2=CC=CC=C2N=C3C1=CC=CC3=O [Pyocyanin]
Details	Bliss interaction score
B. subtilis 168 [4]	-0.0765
S. aureus DSM 20231 [2]	0.0671
S. aureus Newman [3]	0.104
S. pneumoniae D39V [1]	-0.117

fitness
Details	first compound 0.39 µg/mL	first compound 0.78 µg/mL	first compound 1 µg/mL	first compound 1.56 µg/mL	first compound 2 µg/mL	first compound 4 µg/mL
B. subtilis 168 [8], partner 1.25 µg/mL	0.879	0.847	–	0.89	–	–
B. subtilis 168 [8], partner 2.5 µg/mL	0.875	0.812	–	0.823	–	–
B. subtilis 168 [8], partner 5 µg/mL	0.679	0.666	–	0.656	–	–
S. aureus DSM 20231 [6], partner 1.25 µg/mL	0.86	0.945	–	≥ 1	–	–
S. aureus DSM 20231 [6], partner 2.5 µg/mL	0.96	0.957	–	0.967	–	–
S. aureus DSM 20231 [6], partner 5 µg/mL	0.67	0.725	–	0.681	–	–
S. aureus Newman [7], partner 1.25 µg/mL	0.907	0.902	–	0.918	–	–
S. aureus Newman [7], partner 2.5 µg/mL	0.785	0.824	–	0.845	–	–
S. aureus Newman [7], partner 5 µg/mL	0.476	0.44	–	0.417	–	–
S. pneumoniae D39V [5], partner 0.325 µg/mL	–	–	0.977	–	0.975	0.792
S. pneumoniae D39V [5], partner 0.65 µg/mL	–	–	0.926	–	0.866	0.697

one replicate
Details	fitness
S. aureus DSM 20231 [6], first compound 3.12 µg/mL, partner 1.25 µg/mL	0.946
S. aureus DSM 20231 [6], first compound 3.12 µg/mL, partner 2.5 µg/mL	0.844
S. aureus DSM 20231 [6], first compound 3.12 µg/mL, partner 5 µg/mL	0.482
S. aureus DSM 20231 [6], first compound 6.24 µg/mL, partner 1.25 µg/mL	0.756
S. aureus DSM 20231 [6], first compound 6.24 µg/mL, partner 2.5 µg/mL	0.632
S. aureus DSM 20231 [6], first compound 6.24 µg/mL, partner 5 µg/mL	0.248
S. pneumoniae D39V [5], first compound 1 µg/mL, partner 1.3 µg/mL	0.394
S. pneumoniae D39V [5], first compound 2 µg/mL, partner 1.3 µg/mL	0.34
S. pneumoniae D39V [5], first compound 4 µg/mL, partner 1.3 µg/mL	0.294

CO/N=C(\C(=O)N[C@@H]1C(=O)N2C(C(=O)O)=C(COC(C)=O)CS[C@H]12)c1csc(N)n1 [Cefotaxime] + CCN(CC)CCOC(=O)c1ccc(N)cc1 [Procaine]
Details	Bliss interaction score
B. subtilis 168 [4]	0.0852
S. aureus DSM 20231 [2]	-0.0909
S. aureus Newman [3]	-0.0467
S. pneumoniae D39V [1]	-0.0264

fitness
Details	partner 85.5 µg/mL	partner 171 µg/mL	partner 342 µg/mL
B. subtilis 168 [8], first compound 0.5 µg/mL	0.243	0.225	0.259
B. subtilis 168 [8], first compound 1 µg/mL	0.165	0.125	0.169
B. subtilis 168 [8], first compound 2 µg/mL	0.0861	0.0682	0.118
S. aureus DSM 20231 [6], first compound 0.078 µg/mL	0.721	0.786	0.77
S. aureus DSM 20231 [6], first compound 0.156 µg/mL	0.62	0.703	0.712
S. aureus DSM 20231 [6], first compound 0.312 µg/mL	0.579	0.67	0.664
S. aureus Newman [7], first compound 0.625 µg/mL	0.169	0.111	0.139
S. aureus Newman [7], first compound 1.25 µg/mL	0.0581	0.0383	0.0412
S. aureus Newman [7], first compound 2.5 µg/mL	0.0238	0.0269	0.0485
S. pneumoniae D39V [5], first compound 0.0018 µg/mL	≥ 1	≥ 1	≥ 1
S. pneumoniae D39V [5], first compound 0.0035 µg/mL	0.954	≥ 1	0.945
S. pneumoniae D39V [5], first compound 0.007 µg/mL	0.904	0.92	0.844

fitness, one replicate
Details	partner 85.5 µg/mL	partner 171 µg/mL	partner 342 µg/mL
B. subtilis 168 [8], first compound 0.00775 µg/mL	0.834	0.848	0.811
B. subtilis 168 [8], first compound 0.0155 µg/mL	0.701	0.691	0.64
B. subtilis 168 [8], first compound 0.031 µg/mL	0.583	0.572	0.561
S. aureus DSM 20231 [6], first compound 0.039 µg/mL	0.632	0.766	0.762
S. aureus Newman [7], first compound 0.078 µg/mL	0.608	0.612	0.595
S. aureus Newman [7], first compound 0.156 µg/mL	0.454	0.459	0.438
S. aureus Newman [7], first compound 0.312 µg/mL	0.276	0.255	0.264

COc1cccc2c1C(=O)c1c(O)c3c(c(O)c1C2=O)C[C@@](O)(C(=O)CO)C[C@@H]3O[C@H]1C[C@H](N)[C@H](O)[C@H](C)O1 [Doxorubicin] + Cc1onc(-c2ccccc2)c1C(=O)N[C@@H]1C(=O)N2[C@@H]1SC(C)(C)[C@@H]2C(=O)O [Oxacillin]
Details	Bliss interaction score
B. subtilis 168 [4]	0.0758
S. aureus DSM 20231 [2]	-0.0629
S. aureus Newman [3]	0.0538
S. pneumoniae D39V [1]	0.0665

fitness
Details	first compound 0.25 µg/mL	first compound 0.5 µg/mL	first compound 0.625 µg/mL	first compound 1 µg/mL	first compound 1.25 µg/mL	first compound 2.5 µg/mL
B. subtilis 168 [8], partner 0.002 µg/mL	–	–	0.995	–	0.895	0.749
B. subtilis 168 [8], partner 0.004 µg/mL	–	–	0.932	–	0.89	0.675
B. subtilis 168 [8], partner 0.008 µg/mL	–	–	0.881	–	0.871	0.512
S. aureus DSM 20231 [6], partner 0.0156 µg/mL	–	–	0.738	–	0.756	0.599
S. aureus DSM 20231 [6], partner 0.0312 µg/mL	–	–	0.604	–	0.585	0.532
S. aureus DSM 20231 [6], partner 0.0625 µg/mL	–	–	0.479	–	0.481	0.466
S. aureus Newman [7], partner 0.0156 µg/mL	–	–	0.705	–	0.671	0.671
S. aureus Newman [7], partner 0.0312 µg/mL	–	–	0.637	–	0.633	0.645
S. aureus Newman [7], partner 0.0625 µg/mL	–	–	0.582	–	0.583	0.569
S. pneumoniae D39V [5], partner 0.005 µg/mL	≥ 1	≥ 1	–	0.997	–	–
S. pneumoniae D39V [5], partner 0.01 µg/mL	0.941	0.973	–	0.924	–	–
S. pneumoniae D39V [5], partner 0.02 µg/mL	0.889	0.897	–	0.891	–	–
S. pneumoniae D39V [5], partner 0.04 µg/mL	0.252	0.337	–	0.323	–	–

fitness, B. subtilis 168 [8], one replicate
Details	partner 0.0078 µg/mL	partner 0.0155 µg/mL	partner 0.031 µg/mL	partner 0.075 µg/mL	partner 0.15 µg/mL	partner 0.3 µg/mL
first compound 0.625 µg/mL	≥ 1	≥ 1	0.943	0.468	0.0267	0.0431
first compound 1.25 µg/mL	0.965	0.934	0.857	0.496	0.0281	0.0304
first compound 2.5 µg/mL	0.652	0.666	0.477	0.0449	0.0184	0.0211
